Assay results published in US8101754B2, “Triazole compounds suitable for treating disorders that respond to modulation of the dopamine D3 receptor” (Abbott GmbH & Co. KG, priority 2004, dated 2012).
Counter-ions that a name gives are not always drawn. Like-named read-outs stand apart in the source and are kept apart here.

How the values were obtained:
[1] = biological target: T1, human dopamine D2L receptors (long isoform) (Homo sapiens, UniProt P14416); test: Dopamine D2L receptor binding ([125I] iodospiperone), basis of selectivity Ki(D2)/Ki(D3); settings: for D2/D3: Table 7, compounds of formula IIa; for Selectivity [Ki(D2)/Ki(D3)]: D2L vs D3
T1 construct: expressed in transfected cells; membranes)
T1 sequence (P14416 whole entry, canonical isoform): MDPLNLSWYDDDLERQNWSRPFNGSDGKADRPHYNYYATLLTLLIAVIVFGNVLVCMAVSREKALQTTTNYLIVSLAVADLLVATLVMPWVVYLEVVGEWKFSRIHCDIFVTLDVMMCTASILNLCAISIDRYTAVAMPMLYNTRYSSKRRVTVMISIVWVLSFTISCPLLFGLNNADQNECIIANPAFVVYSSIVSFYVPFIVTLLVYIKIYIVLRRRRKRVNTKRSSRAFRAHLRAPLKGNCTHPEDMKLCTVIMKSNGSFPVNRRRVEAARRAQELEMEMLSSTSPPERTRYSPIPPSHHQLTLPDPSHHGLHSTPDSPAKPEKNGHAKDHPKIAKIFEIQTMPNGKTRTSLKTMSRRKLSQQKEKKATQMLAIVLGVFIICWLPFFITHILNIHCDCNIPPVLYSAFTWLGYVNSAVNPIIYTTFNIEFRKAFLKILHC
Protocol: The substance to be tested was either dissolved in methanol/Chremophor® (BASF-AG) or in dimethyl sulfoxide and then diluted with water to the desired concentration. […] Each assay mixture was run in triplicate. The incubation buffer contained 50 mM tris, 120 mM NaCl, 5 mM KCl, 2 mM CaCl2, 2 mM MgCl2 and 0.1% bovine serum albumin. The buffer was adjusted to pH 7.4 with HCl. Measurement and Analysis: After having been incubated at 25° C. for 60 minutes, the assay mixtures were filtered through a Wathman GF/B glass fiber filter under vacuum using a cell collecting device. The filters were transferred to scintillation viols using a filter transfer system. After 4 ml of Ultima Gold® (Packard) have been added, the samples were shaken for one hour and the radioactivity was then counted in a Beta-Counter (Packard, Tricarb 2000 or 2200CA). The cpm values were converted into dpm using a standard quench series and the program belonging to the instrument. The inhibition curves were analyzed by means of iterative nonlinear regression analysis using the Statistical Analysis System (SAS) which is similar to the “LIGAND” program described by Munson and Rodbard.

[2] = biological target: T2, human dopamine D3 receptors (Homo sapiens, UniProt P35462); test: Dopamine D3 receptor binding ([125I]-iodosulpride displacement)
T2 construct: expressed in transfected cells; membranes)
T2 sequence (P35462 whole entry): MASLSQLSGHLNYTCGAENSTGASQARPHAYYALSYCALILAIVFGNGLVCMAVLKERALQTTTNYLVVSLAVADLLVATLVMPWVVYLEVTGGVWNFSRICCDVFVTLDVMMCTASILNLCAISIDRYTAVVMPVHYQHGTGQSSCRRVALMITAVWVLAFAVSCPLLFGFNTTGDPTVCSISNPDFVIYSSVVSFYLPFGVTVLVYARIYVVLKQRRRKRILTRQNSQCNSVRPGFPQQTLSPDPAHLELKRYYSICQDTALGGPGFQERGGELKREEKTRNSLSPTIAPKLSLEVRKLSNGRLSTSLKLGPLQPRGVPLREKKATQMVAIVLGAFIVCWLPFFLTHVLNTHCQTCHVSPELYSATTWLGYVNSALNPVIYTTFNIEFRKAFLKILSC
Protocol: The substance to be tested was either dissolved in methanol/Chremophor® (BASF-AG) or in dimethyl sulfoxide and then diluted with water to the desired concentration.
Each assay mixture was run in triplicate.
The incubation buffer contained 50 mM tris, 120 mM NaCl, 5 mM KCl, 2 mM CaCl2, 2 mM MgCl2 and 0.1% bovine serum albumin, 10 μM quinolone and 0.1% ascorbic acid (prepared fresh daily). The buffer was adjusted to pH 7.4 with HCl.
Measurement and Analysis:
After having been incubated at 25° C. for 60 minutes, the assay mixtures were filtered through a Wathman GF/B glass fiber filter under vacuum using a cell collecting device. The filters were transferred to scintillation viols using a filter transfer system. After 4 ml of Ultima Gold® (Packard) have been added, the samples were shaken for one hour and the radioactivity was then counted in a Beta-Counter (Packard, Tricarb 2000 or 2200CA). The cpm values were converted into dpm using a standard quench series and the program belonging to the instrument.
The inhibition curves were analyzed by means of iterative nonlinear regression analysis using the Statistical Analysis System (SAS) which is similar to the “LIGAND” program described by Munson and Rodbard.

[3] = Table 7, compounds of formula IIa, read-out: D3
[4] = compounds II, read-out: Ki D3 values
[5] = Table 6, membranes of HEK-293 cells, read-out: ki D3
[6] = Table 5, membranes of HEK-293 cells, read-out: Ki D3

Q: How did the D2/D3 [1] turn out when `COCc1nnc(SCCCN2CCN(c3cc(C(F)(F)F)nc(C(C)(C)C)n3)CC2)n1C.Cl` [c.16, 2-tert-Butyl-4-{4-[3-(4-methyl-5-methoxymethyl-4H-[1,2,4]triazol-3-ylsulfanyl)-propyl]-piperazin-1-yl}-6-trifluoromethyl-pyrimidine hydrochloride] was run?
A: 237

Q: What about the Ki [2, 3] of the same compound?
A: 0.65 nM

Q: What about the Ki [2, 4] of the same compound?
A: < 5 nM

Q: Which Ki [2, 4] does the source give for `Cn1c(SCCCN2CCN(c3cc(C(F)F)nc(C(C)(C)C)n3)CC2)nnc1C(F)(F)F` [c.6, 2-tert-Butyl-4-{4-[3-(4-methyl-5-trifluoromethyl-4H-[1,2,4]triazol-3-ylsulfanyl)-propyl]-piperazin-1-yl}-6-difluoromethyl-pyrimidine hydrochloride] here?
A: < 5 nM

Q: What does the source list for `Cl.Cn1c(SCCCN2CCN(c3cc(C(F)F)nc(C(C)(C)C)n3)CC2)nnc1C(C)(C)C` [c.7, 2-tert-Butyl-4-{4-[3-(4-methyl-5-tert-butyl-4H-[1,2,4]triazol-3-ylsulfanyl)-propyl]-piperazin-1-yl}-6-difluoromethyl-pyrimidine hydrochloride]?
A: D2/D3 [1]: 115; Ki [2, 3]: 1.2 nM; Ki [2, 4]: < 5 nM

Q: Which results are given for `Cn1cnnc1[S+]([O-])CCCN1CCN(c2cc(C3CCCC3)nc(C(C)(C)C)n2)CC1` (centres unmarked) [Example 25, 2-tert-Butyl-4-{4-[3-(4-methyl-1H-[1,2,4]triazole-3-sulfinyl)-propyl]-piperazin-1-yl}-6-cyclopentyl-pyrimidine]?
A: Selectivity [Ki(D2)/Ki(D3)] ([1]; Table 6): 30; Ki [2, 5]: 23.3 nM

Q: What does the source list for `CCCc1cc(N2CCN(CCCS(=O)(=O)c3nnc(CC)n3C)CC2)nc(C(C)(C)C)n1` [Example 12, 2-tert-Butyl-4-{4-[3-(5-ethyl-4-methyl-4H-[1,2,4]triazole-3-sulfonyl)-propyl]-piperazin-1-yl}-6-propyl-pyrimidine]?
A: Selectivity [Ki(D2)/Ki(D3)] ([1]; Table 5): 55; Ki [2, 6]: 12.8 nM

Q: For `Cl.Cn1cnc(S(=O)(=O)CCCN2CCN(c3cc(C(F)(F)F)nc(C(C)(C)C)n3)CC2)n1` [Example 19, 2-tert-Butyl-4-{4-[3-(1-methyl-1H-[1,2,4]triazole-3-sulfonyl)-propyl]-piperazin-1-yl}-6-trifluoromethyl-pyrimidine hydrochloride], which “Selectivity [Ki(D2)/Ki(D3)]” value ([1]; Table 6) is on record?
A: 17

Q: And the Ki [2, 5]?
A: 32 nM

Q: With `Cn1cnnc1S(=O)(=O)CCCN1CCN(c2cc(C3CCC3)nc(C(C)(C)C)n2)CC1` [Example 2, 2-tert-Butyl-4-cyclobutyl-6-{4-[3-(4-methyl-4H-[1,2,4]triazole-3-sulfonyl)-propyl]-piperazin-1-yl}-pyrimidine] as the compound, how does the “Selectivity [Ki(D2)/Ki(D3)]” value ([1]; Table 5) read?
A: 14

Q: What about the Ki [2, 6] of the same compound?
A: 52 nM

Q: Which results are given for `Cc1nnc(S(=O)(=O)CCCN2CCN(c3cc(C4(C)CC4)nc(C(C)(C)C)n3)CC2)n1C` [Example 10, 2-tert-Butyl-4-{4-[3-(4,5-dimethyl-4H-[1,2,4]triazole-3-sulfonyl)-propyl]-piperazin-1-yl}-6-(1-methyl-cyclopropyl)-pyrimidine]?
A: Selectivity [Ki(D2)/Ki(D3)] ([1]; Table 5): 37; Ki [2, 6]: 7.8 nM

Q: Which results are given for `Cc1nnc(SCCCN2CCN(c3cc(C(F)(F)F)nc(C(C)(C)C)n3)CC2)n1C.Cl` [c.14, 2-tert-Butyl-4-{4-[3-(4-methyl-5-methyl-4H-[1,2,4]triazol-3-ylsulfanyl)-propyl]-piperazin-1-yl}-6-trifluoromethyl-pyrimidine hydrochloride]?
A: D2/D3 [1]: 135; Ki [2, 3]: 1.5 nM

Q: Which results are given for `CCCc1cc(N2CCN(CCCS(=O)(=O)c3nnc(C)n3C)CC2)nc(C(C)(C)C)n1` [Example 9, 2-Di-tert-butyl-6-{4-[3-(4,5-dimethyl-4H-[1,2,4]triazole-3-sulfonyl)-propyl]-piperazin-1-yl}-6-propyl-pyrimidine]?
A: Selectivity [Ki(D2)/Ki(D3)] ([1]; Table 5): 45; Ki [2, 6]: 18.3 nM

Q: How did the “Selectivity [Ki(D2)/Ki(D3)]” value ([1]; Table 6) turn out when `Cl.Cn1ncnc1S(=O)(=O)CCCN1CCN(c2cc(C(C)(C)C)nc(C(C)(C)C)n2)CC1` [Example 20, 2,4-Di-tert-butyl-6-{4-[3-(2-methyl-2H-[1,2,4]triazole-3-sulfonyl)-propyl]-piperazin-1-yl}-pyrimidine hydrochloride] was run?
A: 8

Q: And the Ki [2, 5]?
A: 26.2 nM

Q: `CCc1nnc(SCCCN2CCN(c3cc(C(F)F)nc(C(C)(C)C)n3)CC2)n1C` [c.29, 2-tert-Butyl-4-{4-[3-(4-methyl-5-ethyl-4H-[1,2,4]triazol-3-ylsulfanyl)-propyl]-piperazin-1-yl}-6-difluoromethyl-pyrimidine hydrochloride] was tested. Which Ki [2, 4] did it give?
A: < 5 nM

Q: With `Cc1nnc([S+]([O-])CCCN2CCN(c3cc(C4(C)CC4)nc(C(C)(C)C)n3)CC2)n1C` (centres unmarked) [Example 6, 2-tert-Butyl-4-{4-[3-(4,5-dimethyl-4H-[1,2,4]triazole-3-sulfinyl)-propyl]-piperazin-1-yl}-6-(1-methyl-cyclopropyl)-pyrimidine] as the compound, how does the “Selectivity [Ki(D2)/Ki(D3)]” value ([1]; Table 5) read?
A: 20

Q: What about the Ki [2, 6] of the same compound?
A: 28.7 nM

Q: For `Cn1c(SCCCN2CCN(c3cc(C(F)F)nc(C(C)(C)C)n3)CC2)nnc1C1CC1` [c.21, 2-tert-Butyl-4-{4-[3-(4-methyl-5-cyclopropyl-4H-[1,2,4]triazol-3-ylsulfanyl)-propyl]-piperazin-1-yl}-6-difluoromethyl-pyrimidine hydrochloride], which Ki [2, 4] is on record?
A: < 5 nM

Q: Which Ki [2, 4] does the source give for `Cn1c(SCCCN2CCN(c3cc(C(F)(F)F)nc(C(C)(C)C)n3)CC2)nnc1C(C)(C)C` [c.27, 2-tert-Butyl-4-{4-[3-(4-methyl-5-tert-butyl-4H-[1,2,4]triazol-3-ylsulfanyl)-propyl]-piperazin-1-yl}-6-trifluoromethyl-pyrimidine] here?
A: < 5 nM

Q: How did the Ki [2, 4] turn out when `CCc1cc(N2CCN(CCCSc3nnc(C(F)(F)F)n3C)CC2)nc(C(C)(C)C)n1` [c.28, 2-tert-Butyl-4-{4-[3-(4-methyl-5-trifluoromethyl-4H-[1,2,4]triazol-3-ylsulfanyl)-propyl]-piperazin-1-yl}-6-ethyl-pyrimidine hydrochloride] was run?
A: < 5 nM

Q: For `CC(=O)O.Cn1c(SCCCN2CCN(c3cc(C(F)(F)F)nc(C(C)(C)C)n3)CC2)nnc1C1CCC1` [c.18, 2-tert-Butyl-4-{4-[3-(4-methyl-5-cyclobutyl-4H-[1,2,4]triazol-3-ylsulfanyl)-propyl]-piperazin-1-yl}-6-trifluoromethyl-pyrimidine acetate], which D2/D3 [1] is on record?
A: 134

Q: And the Ki [2, 3]?
A: 2.9 nM

Q: What about the Ki [2, 4] of the same compound?
A: < 5 nM

Q: For `Cl.Cn1c(-c2ccc(F)cc2)nnc1S(=O)(=O)CCCN1CCN(c2cc(C(F)(F)F)nc(C(C)(C)C)n2)CC1` [Example 16, 2-tert-Butyl-4-(4-{3-[5-(4-fluoro-phenyl)-4-methyl-4H-[1,2,4]triazole-3-sulfonyl]-propyl}-piperazin-1-yl)-6-trifluoromethyl-pyrimidine hydrochloride], which “Selectivity [Ki(D2)/Ki(D3)]” value ([1]; Table 5) is on record?
A: 56

Q: And the Ki [2, 6]?
A: 17.7 nM

Q: How did the D2/D3 [1] turn out when `Cl.Cn1c(SCCCN2CCN(c3cc(C(F)(F)F)nc(C(C)(C)C)n3)CC2)nnc1C(F)(F)F` [c.13, 2-tert-Butyl-4-{4-[3-(4-methyl-5-trifluoromethyl-4H-[1,2,4]triazol-3-ylsulfanyl)-propyl]-piperazin-1-yl}-6-trifluoromethyl-pyrimidine hydrochloride] was run?
A: 157

Q: What about the Ki [2, 3] of the same compound?
A: 1.3 nM

Q: `Cn1cnnc1S(=O)(=O)CCCN1CCN(c2cc(C(C)(C)C)nc(C(C)(C)C)n2)CC1` [Example 17, 2,4-Di-tert-butyl-6-{4-[3-(4-methyl-4H-[1,2,4]triazole-3-sulfonyl)-propyl]-piperazin-1-yl}-pyrimidine] was tested. Which “Selectivity [Ki(D2)/Ki(D3)]” value ([1]; Table 6) did it give?
A: 53

Q: And the Ki [2, 5]?
A: 5.95 nM

Q: With `Cn1c(SCCCN2CCN(c3cc(C(F)F)nc(C(C)(C)C)n3)CC2)nnc1C1CCC1` [c.20, 2-tert-Butyl-4-{4-[3-(4-methyl-5-cyclobutyl-4H-[1,2,4]triazol-3-ylsulfanyl)-propyl]-piperazin-1-yl}-6-difluoromethyl-pyrimidine hydrochloride] as the compound, how does the Ki [2, 4] read?
A: < 5 nM

Q: Which “Selectivity [Ki(D2)/Ki(D3)]” value ([1]; Table 6) does the source give for `CC(C)c1cc(N2CCN(CCCS(=O)(=O)c3nncn3C)CC2)nc(C(C)(C)C)n1` [Example 23, 2-tert-Butyl-4-{4-[3-(4-methyl-1H-[1,2,4]triazole-3-sulfonyl)-propyl]-piperazin-1-yl}-6-isopropyl-pyrimidine] here?
A: 49

Q: And the Ki [2, 5]?
A: 59.8 nM

Q: `Cl.Cn1cnc([S+]([O-])CCCN2CCN(c3cc(C(C)(C)C)nc(C(C)(C)C)n3)CC2)n1` (centres unmarked) [Example 30, 2,6-di-tert-Butyl-4-{4-[3-(1-methyl-1H-[1,2,4]triazole-3-sulfinyl)-propyl]-piperazin-1-yl}-pyrimidine hydrochloride] was tested. Which “Selectivity [Ki(D2)/Ki(D3)]” value ([1]; Table 6) did it give?
A: 51

Q: What about the Ki [2, 5] of the same compound?
A: 3.5 nM

Q: How did the Ki [2, 4] turn out when `Cn1c(SCCCN2CCN(c3cc(C(F)(F)F)nc(C(C)(C)C)n3)CC2)nnc1C1CCCC1` [c.3, 2-tert-Butyl-4-{4-[3-(4-methyl-5-cyclopentyl-4H-[1,2,4]triazol-3-ylsulfanyl)-propyl]-piperazin-1-yl}-6-trifluoromethyl-pyrimidine trifluoroacetate] was run?
A: < 5 nM
